{
  "source": "patent US20220340597A1",
  "about": "“HEXAHYDRO-1H-PYRAZINO[1,2-A]PYRAZINE COMPOUNDS FOR THE TREATMENT OF AUTOIMMUNE DISEASE” (Hoffmann-La Roche Inc., priority 2019, published 2022)",
  "molecular_target": "T1, human TLR9 (Homo sapiens, UniProt Q9NR96)",
  "T1 construct": "host or cells: HEK293 (HEK-Blue hTLR9)",
  "T1 sequence (Q9NR96 26-1032)": "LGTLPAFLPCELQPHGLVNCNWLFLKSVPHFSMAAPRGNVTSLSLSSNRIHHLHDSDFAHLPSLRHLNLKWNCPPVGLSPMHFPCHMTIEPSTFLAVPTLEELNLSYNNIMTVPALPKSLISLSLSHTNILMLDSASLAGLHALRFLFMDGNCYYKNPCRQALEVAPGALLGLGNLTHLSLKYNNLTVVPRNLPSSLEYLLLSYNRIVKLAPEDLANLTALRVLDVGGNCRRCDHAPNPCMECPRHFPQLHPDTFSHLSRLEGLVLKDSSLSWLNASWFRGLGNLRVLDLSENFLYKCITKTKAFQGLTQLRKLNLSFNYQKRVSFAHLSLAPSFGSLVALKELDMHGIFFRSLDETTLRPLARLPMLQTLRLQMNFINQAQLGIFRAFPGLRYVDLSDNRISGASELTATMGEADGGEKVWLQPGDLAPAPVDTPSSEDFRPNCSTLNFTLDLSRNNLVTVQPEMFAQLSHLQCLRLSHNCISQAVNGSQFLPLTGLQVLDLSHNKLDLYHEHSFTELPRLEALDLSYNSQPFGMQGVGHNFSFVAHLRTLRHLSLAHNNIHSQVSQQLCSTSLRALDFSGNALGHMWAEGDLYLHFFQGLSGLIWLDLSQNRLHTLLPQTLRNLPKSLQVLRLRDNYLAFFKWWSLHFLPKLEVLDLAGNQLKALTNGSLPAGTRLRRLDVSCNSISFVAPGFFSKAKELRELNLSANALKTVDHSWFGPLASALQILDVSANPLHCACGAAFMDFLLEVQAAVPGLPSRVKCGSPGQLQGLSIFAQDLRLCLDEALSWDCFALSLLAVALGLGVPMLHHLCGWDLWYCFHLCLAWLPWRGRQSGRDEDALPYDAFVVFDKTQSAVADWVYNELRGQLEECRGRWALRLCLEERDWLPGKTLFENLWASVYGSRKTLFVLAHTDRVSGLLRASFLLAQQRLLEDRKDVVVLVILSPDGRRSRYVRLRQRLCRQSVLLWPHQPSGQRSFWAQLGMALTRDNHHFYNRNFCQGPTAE",
  "assay": "HEK293-Blue-hTLR-9 cells assay",
  "type": "cell-based",
  "conditions": "HEK293-Blue-hTLR9 cells, ODN2006 stimulation, 20 hrs, SEAP reporter; read-out: HEK/hTLR9 IC50",
  "procedure": "The following tests were carried out in order to determine the activity of the compounds of formula (I) and (Ia) in HEK293-Blue-hTLR-7/8/9 cells assay.\nHEK293-Blue-hTLR-9 Cells Assay:\nA stable HEK293-Blue-hTLR-9 cell line was purchased from InvivoGen (Cat. #: hkb-htlr9, San Diego, Calif., USA). These cells were originally designed for studying the stimulation of human TLR9 by monitoring the activation of NF-κB. A SEAP (secreted embryonic alkaline phosphatase) reporter gene was placed under the control of the […] minimal promoter fused to five NF-κB and AP-1-binding sites. The SEAP was induced by activating NF-κB and AP-1 via stimulating HEK-Blue hTLR9 cells with TLR9 ligands. Therefore, the reporter expression was declined by TLR9 antagonist under the stimulation of a ligand, such as ODN2006 (Cat. #: tlr1-2006-1, Invivogen, San Diego, Calif., USA), for incubation of 20 hrs. The cell culture supernatant SEAP reporter activity was determined using QUANTI-Blue™ kit (Cat. #: rep-qb1, Invivogen, San Diego, Calif., USA) at a wavelength of 640 nm, a detection medium that turns purple or blue in the presence of alkaline phosphatase.\nThen 20 μL of the supernatant from each well was incubated with 180 μL Quanti-blue substrate solution at 37° C. for 2 h and the absorbance was read at 620-655 nm using a spectrophotometer. The signaling pathway that TLR9 activation leads to downstream NF-κB activation has been widely accepted, and therefore similar reporter assay was modified for evaluating TLR9 antagonist.",
  "note": "pIC50: −log10 of the molar value.",
  "data": [
    {"smiles": "C[C@@H]1CN(c2ccc(C#N)c3ncccc23)C[C@@H]2CN(Cc3cnc4c(c3)CNCC4)CCN21", "note": "[Example 6, 5-[(4R,9aS)-4-methyl-8-(5,6,7,8-tetrahydro-1,6-naphthyridin-3-ylmethyl)-3,4,6,7,9,9a-hexahydro-1H-pyrazino[1,2-a]pyrazin-2-yl]quinoline-8-carbonitrile]", "values": [
      {"measurement": "pIC50", "result": 7.16}
    ]},
    {"smiles": "C[C@@H]1CN(c2ccc(C#N)c3ncccc23)C[C@@H]2CN(CCc3ccc(N4CCNCC4)cc3)CCN21", "note": "[Example 7, 5-[(4R,9aS)-4-methyl-8-[2-(4-piperazin-1-ylphenyl)ethyl]-3,4,6,7,9,9a-hexahydro-1H-pyrazino[1,2-a]pyrazin-2-yl]quinoline-8-carbonitrile]", "values": [
      {"measurement": "pIC50", "result": "> 7.49"}
    ]},
    {"smiles": "C[C@@H]1CN(c2ccc(C#N)c3ncccc23)C[C@@H]2CN(Cc3ccc4c(c3)CCNC4)CCN21", "note": "[Example 10, 5-[(4R,9aS)-4-methyl-8-(1,2,3,4-tetrahydroisoquinolin-6-ylmethyl)-3,4,6,7,9,9a-hexahydro-1H-pyrazino[1,2-a]pyrazin-2-yl]quinoline-8-carbonitrile]", "values": [
      {"measurement": "pIC50", "result": 7.37}
    ]},
    {"smiles": "C[C@@H]1CN(c2ccc(C#N)c3ncccc23)C[C@@H]2CN(CCc3ccc(N4CCNCC4)nc3)CCN21", "note": "[Example 11, 5-[(4R,9aS)-4-methyl-8-[2-(6-piperazin-1-yl-3-pyridyl)ethyl]-3,4,6,7,9,9a-hexahydro-1H-pyrazino[1,2-a]pyrazin-2-yl]quinoline-8-carbonitrile]", "values": [
      {"measurement": "pIC50", "result": 7.43}
    ]},
    {"smiles": "CO[C@@H]1CN(c2ccc(CCN3CCN4[C@@H](C3)CN(c3ccc(C#N)c5ncccc35)C[C@H]4C)nc2)C[C@H]1N", "note": "[Example 13, 5-[(4R,9aS)-8-[2-[5-[(3R,4R)-3-amino-4-methoxy-pyrrolidin-1-yl]-2-pyridyl]ethyl]-4-methyl-3,4,6,7,9,9a-hexahydro-1H-pyrazino[1,2-a]pyrazin-2-yl]quinoline-8-carbonitrile]", "values": [
      {"measurement": "pIC50", "result": 7.40}
    ]},
    {"smiles": "C[C@@H]1CN(c2ccc(C#N)c3ncccc23)C[C@@H]2CN(Cc3ccc(N4CCCNCC4)nc3)CCN21", "note": "[Example 15, 5-[(4R,9aS)-8-[[6-(1,4-diazepan-1-yl)-3-pyridyl]methyl]-4-methyl-3,4,6,7,9,9a-hexahydro-JH-pyrazino[1,2-a]pyrazin-2-yl]quinoline-8-carbonitrile]", "values": [
      {"measurement": "pIC50", "result": 7.39}
    ]},
    {"smiles": "C[C@@H]1CN(c2ccc(C#N)c3ncccc23)C[C@@H]2CN(c3nccc4c3CCNC4)CCN21", "note": "[Example 16, 5-[(4R,9aR)-4-methyl-8-(5,6,7,8-tetrahydro-2,6-naphthyridin-1-yl)-3,4,6,7,9,9a-hexahydro-1H-pyrazino[1,2-a]pyrazin-2-yl]quinoline-8-carbonitrile]", "values": [
      {"measurement": "pIC50", "result": 6.92}
    ]},
    {"smiles": "C[C@@H]1CN(c2ccc(C#N)c3ncccc23)C[C@@H]2CN(CCc3ccc(N4C[C@@H](N)[C@@H](F)C4)cn3)CCN21", "note": "[Example 19, 5-[(4R,9aS)-8-[2-[5-[(3R,4S)-3-amino-4-fluoro-pyrrolidin-1-yl]-2-pyridyl]ethyl]-4-methyl-3,4,6,7,9,9a-hexahydro-1H-pyrazino[1,2-a]pyrazin-2-yl]quinoline-8-carbonitrile]", "values": [
      {"measurement": "pIC50", "result": 7.32}
    ]},
    {"smiles": "C[C@@H]1CN(c2ccc(C#N)c3ncccc23)C[C@@H]2CN(CCc3ccc(N4CCN[C@@H](C)C4)cn3)CCN21", "note": "[Example 20, 5-[(4R,9aS)-4-methyl-8-[2-[5-[(3S)-3-methylpiperazin-1-yl]-2-pyridyl]ethyl]-3,4,6,7,9,9a-hexahydro-1H-pyrazino[1,2-a]pyrazin-2-yl]quinoline-8-carbonitrile]", "values": [
      {"measurement": "pIC50", "result": 7.25}
    ]},
    {"smiles": "C[C@@H]1CN(c2ccc(C#N)c3ncccc23)C[C@@H]2CN(CCc3cccc(N4CCN[C@@H](C)C4)n3)CCN21", "note": "[Example 21, 5-[(4R,9aS)-4-methyl-8-[2-[6-[(3S)-3-methylpiperazin-1-yl]-2-pyridyl]ethyl]-3,4,6,7,9,9a-hexahydro-1H-pyrazino[1,2-a]pyrazin-2-yl]quinoline-8-carbonitrile]", "values": [
      {"measurement": "pIC50", "result": 7.25}
    ]},
    {"smiles": "CO[C@H]1CN(c2ccc(CCN3CCN4[C@@H](C3)CN(c3ccc(C#N)c5ncccc35)C[C@H]4C)cn2)C[C@H]1N", "note": "[Example 24, 5-[(4R,9aS)-8-[2-[6-[(3R,4S)-3-amino-4-methoxy-pyrrolidin-1-yl]-3-pyridyl]ethyl]-4-methyl-3,4,6,7,9,9a-hexahydro-1H-pyrazino[1,2-a]pyrazin-2-yl]quinoline-8-carbonitrile]", "values": [
      {"measurement": "pIC50", "result": 7.35}
    ]},
    {"smiles": "CO[C@@H]1CN(c2ccc(CCN3CCN4[C@@H](C3)CN(c3ccc(C#N)c5ncccc35)C[C@H]4C)cc2)C[C@H]1N", "note": "[Example 26, 5-[(4R,9aS)-8-[2-[4-[(3R,4R)-3-amino-4-methoxy-pyrrolidin-1-yl]phenyl]ethyl]-4-methyl-3,4,6,7,9,9a-hexahydro-1H-pyrazino[1,2-a]pyrazin-2-yl]quinoline-8-carbonitrile]", "values": [
      {"measurement": "pIC50", "result": 7.06}
    ]},
    {"smiles": "C[C@@H]1CN(c2ccc(C#N)c3ncccc23)C[C@@H]2CN(Cc3cccc(N4CCNCC4)n3)CCN21", "note": "[Example 27, 5-[(4R,9aS)-4-methyl-8-[(6-piperazin-1-yl-2-pyridyl)methyl]-3,4,6,7,9,9a-hexahydro-1H-pyrazino[1,2-a]pyrazin-2-yl]quinoline-8-carbonitrile]", "values": [
      {"measurement": "pIC50", "result": 7.31}
    ]},
    {"smiles": "C[C@@H]1CN(c2ccc(C#N)c3ncccc23)C[C@@H]2CN(CCc3ccc(N4CC5(CNCCO5)C4)cc3)CCN21", "note": "[Example 28, 5-[(4R,9aS)-4-methyl-8-[2-[4-(5-oxa-2,8-diazaspiro[3.5]nonan-2-yl)phenyl]ethyl]-3,4,6,7,9,9a-hexahydro-1H-pyrazino[1,2-a]pyrazin-2-yl]quinoline-8-carbonitrile]", "values": [
      {"measurement": "pIC50", "result": 7.01}
    ]},
    {"smiles": "Cc1cc(N2CCN3[C@@H](C2)CN(c2ccc(C#N)c4ncccc24)C[C@H]3C)nc(N2CCNCC2)n1", "note": "[Example 31, 5-[(4R,9aR)-4-methyl-8-(6-methyl-2-piperazin-1-yl-pyrimidin-4-yl)-3,4,6,7,9,9a-hexahydro-1H-pyrazino[1,2-a]pyrazin-2-yl]quinoline-8-carbonitrile]", "values": [
      {"measurement": "pIC50", "result": 7.07}
    ]},
    {"smiles": "C[C@@H]1CN(c2ccc(C#N)c3ncccc23)C[C@@H]2CN(c3ccnc(N4CCNCC4)c3)CCN21", "note": "[Example 32, 5-[(4R,9aS)-4-methyl-8-(2-piperazin-1-yl-4-pyridyl)-3,4,6,7,9,9a-hexahydro-1H-pyrazino[1,2-a]pyrazin-2-yl]quinoline-8-carbonitrile]", "values": [
      {"measurement": "pIC50", "result": 7.47}
    ]},
    {"smiles": "C[C@@H]1CN(c2ccc(C#N)c3ncccc23)C[C@@H]2CN(c3ccnc(N4CCNCC4)n3)CCN21", "note": "[Example 33, 5-[(4R,9aR)-4-methyl-8-(2-piperazin-1-ylpyrimidin-4-yl)-3,4,6,7,9,9a-hexahydro-1H-pyrazino[1,2-a]pyrazin-2-yl]quinoline-8-carbonitrile]", "values": [
      {"measurement": "pIC50", "result": 7.19}
    ]},
    {"smiles": "N#Cc1ccc(N2CCN3CCN(c4cccc5c4CNC5)CC3C2)c2cccnc12", "note": "(centres unmarked) [Example 35, 5-(8-isoindolin-4-yl-3,4,6,7,9,9a-hexahydro-1H-pyrazino[1,2-a]pyrazin-2-yl)quinoline-8-carbonitrile]", "values": [
      {"measurement": "pIC50", "result": 7.01}
    ]},
    {"smiles": "C[C@@H]1CN(c2ccc(C#N)c3ncccc23)C[C@@H]2CN(c3ccnc(N4C[C@@H](F)[C@@H](N)C4)c3)CCN21", "note": "[Example 40, 5-[(4R,9aS)-8-[2-[(3S,4R)-3-amino-4-fluoro-pyrrolidin-1-yl]-4-pyridyl]-4-methyl-3,4,6,7,9,9a-hexahydro-1H-pyrazino[1,2-a]pyrazin-2-yl]quinoline-8-carbonitrile]", "values": [
      {"measurement": "pIC50", "result": "> 7.49"}
    ]},
    {"smiles": "Cc1cnc(N2CCN3[C@@H](C2)CN(c2ccc(C#N)c4ncccc24)C[C@H]3C)nc1N1CCNCC1", "note": "[Example 43, 5-[(4R,9aR)-4-methyl-8-(5-methyl-4-piperazin-1-yl-pyrimidin-2-yl)-3,4,6,7,9,9a-hexahydro-1H-pyrazino[1,2-a]pyrazin-2-yl]quinoline-8-carbonitrile]", "values": [
      {"measurement": "pIC50", "result": 7.11}
    ]}
  ]
}
